Test results: the supplement of paper PMC10307832

What was measured:
Experiment in all cases: relative viability (nuclei count vs DMSO), 5 days (fraction); higher = more cells survive
[1] = system: 201T
Method in brief: (§1)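 After 5 days of treatment, lung cancer cells in 1536-well plates were fixed and stained in a single step (final 0.05% Triton X-100, 1% formaldehyde, 1 ug/ml Hoechst) and their nuclei counted on 4× images. Treatment had been applied by pin tool the day after seeding as one drug alone or as a fixed anchor-drug dose with five library-drug doses (not always all listed) in √10 steps. Relative viability is the nuclei count of treated wells divided by that of vehicle wells, and values are medians of duplicate plates.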

[2] = system: BEN
Method in brief: as §1

[3] = system: EMC-BAC-2
Method in brief: as §1

[4] = system: HARA
Method in brief: as §1

[5] = system: HCC-44
Method in brief: as §1

[6] = system: LCLC-103H
Method in brief: as §1

[7] = system: LOU-NH91
Method in brief: as §1

[8] = system: NCI-H1395
Method in brief: as §1

[9] = system: NCI-H1993
Method in brief: as §1

[10] = system: NCI-H2023
Method in brief: as §1

[11] = system: NCI-H2087
Method in brief: as §1

[12] = system: NCI-H2126
Method in brief: as §1

[13] = system: NCI-H2347
Method in brief: as §1

[14] = system: NCI-H23
Method in brief: as §1

[15] = system: NCI-H3122
Method in brief: as §1

[16] = system: NCI-H441
Method in brief: as §1

[17] = system: NCI-H522
Method in brief: as §1

[18] = system: NCI-H596
Method in brief: as §1

[19] = system: NCI-H647
Method in brief: as §1

[20] = system: NCI-H650
Method in brief: as §1

[21] = system: NCI-H838
Method in brief: as §1

Structure (SMILES): CC(=O)O[C@@]12CO[C@@H]1C[C@H](O)[C@@]1(C)C(=O)[C@H](O)C3=C(C)[C@@H](OC(=O)[C@H](O)[C@@H](NC(=O)OC(C)(C)C)c4ccccc4)C[C@@](O)([C@@H](OC(=O)c4ccccc4)[C@H]21)C3(C)C [Docetaxel] + Nc1nc2[nH]cc(CCc3ccc(C(=O)N[C@@H](CCC(=O)O)C(=O)O)cc3)c2c(=O)[nH]1 [Pemetrexed] (partner 0.2 µM)
- relative viability ([1]; first compound 0.0002 µM): 0.36
- relative viability ([1]; first compound 0.000632 µM): 0.32
- relative viability ([1]; first compound 0.002 µM): 0.312
- relative viability ([1]; first compound 0.006325 µM): 0.424
- relative viability ([1]; first compound 0.02 µM): 0.255
- relative viability ([2]; first compound 0.0002 µM): 0.68
- relative viability ([2]; first compound 0.000632 µM): 0.795
- relative viability ([2]; first compound 0.002 µM): 0.442
- relative viability ([2]; first compound 0.006325 µM): 0.449
- relative viability ([2]; first compound 0.02 µM): 0.325
- relative viability ([3]; first compound 0.0002 µM): 0.461
- relative viability ([3]; first compound 0.000632 µM): 0.462
- relative viability ([3]; first compound 0.002 µM): 0.464
- relative viability ([3]; first compound 0.006325 µM): 0.361
- relative viability ([3]; first compound 0.02 µM): 0.358
- relative viability ([4]; first compound 0.0002 µM): 0.196
- relative viability ([4]; first compound 0.000632 µM): 0.247
- relative viability ([4]; first compound 0.002 µM): 0.247
- relative viability ([4]; first compound 0.006325 µM): 0.188
- relative viability ([4]; first compound 0.02 µM): 0.142
- relative viability ([5]; first compound 0.0002 µM): 0.627
- relative viability ([5]; first compound 0.000632 µM): 0.644
- relative viability ([5]; first compound 0.002 µM): 0.628
- relative viability ([5]; first compound 0.006325 µM): 0.602
- relative viability ([5]; first compound 0.02 µM): 0.491
- relative viability ([6]; first compound 0.0002 µM): 0.495
- relative viability ([6]; first compound 0.000632 µM): 0.54
- relative viability ([6]; first compound 0.002 µM): 0.515
- relative viability ([6]; first compound 0.006325 µM): 0.6
- relative viability ([6]; first compound 0.02 µM): 0.492
- relative viability ([7]; first compound 0.0002 µM): 0.373
- relative viability ([7]; first compound 0.000632 µM): 0.367
- relative viability ([7]; first compound 0.002 µM): 0.311
- relative viability ([7]; first compound 0.006325 µM): 0.338
- relative viability ([7]; first compound 0.02 µM): 0.312
- relative viability ([8]; first compound 0.0002 µM): 0.814
- relative viability ([8]; first compound 0.000632 µM): 0.706
- relative viability ([8]; first compound 0.002 µM): 0.652
- relative viability ([8]; first compound 0.006325 µM): 0.342
- relative viability ([8]; first compound 0.02 µM): 0.246
- relative viability ([9]; first compound 0.0002 µM): 0.641
- relative viability ([9]; first compound 0.000632 µM): 0.762
- relative viability ([9]; first compound 0.002 µM): 0.64
- relative viability ([9]; first compound 0.006325 µM): 0.444
- relative viability ([9]; first compound 0.02 µM): 0.391
- relative viability ([10]; first compound 0.0002 µM): 0.208
- relative viability ([10]; first compound 0.000632 µM): 0.197
- relative viability ([10]; first compound 0.002 µM): 0.144
- relative viability ([10]; first compound 0.006325 µM): 0.124
- relative viability ([10]; first compound 0.02 µM): 0.0817
- relative viability ([11]; first compound 0.0002 µM): 0.553
- relative viability ([11]; first compound 0.000632 µM): 0.509
- relative viability ([11]; first compound 0.002 µM): 0.24
- relative viability ([11]; first compound 0.006325 µM): 0.168
- relative viability ([11]; first compound 0.02 µM): 0.104
- relative viability ([12]; first compound 0.0002 µM): 0.79
- relative viability ([12]; first compound 0.000632 µM): 0.661
- relative viability ([12]; first compound 0.002 µM): 0.456
- relative viability ([12]; first compound 0.006325 µM): 0.391
- relative viability ([13]; first compound 0.0002 µM): 0.422
- relative viability ([13]; first compound 0.000632 µM): 0.446
- relative viability ([13]; first compound 0.002 µM): 0.419
- relative viability ([13]; first compound 0.006325 µM): 0.429
- relative viability ([13]; first compound 0.02 µM): 0.357
- relative viability ([14]; first compound 0.0002 µM): 0.712
- relative viability ([14]; first compound 0.000632 µM): 0.557
- relative viability ([14]; first compound 0.002 µM): 0.258
- relative viability ([14]; first compound 0.006325 µM): 0.207
- relative viability ([14]; first compound 0.02 µM): 0.14
- relative viability ([15]; first compound 0.0002 µM): 0.185
- relative viability ([15]; first compound 0.000632 µM): 0.196
- relative viability ([15]; first compound 0.002 µM): 0.193
- relative viability ([15]; first compound 0.006325 µM): 0.14
- relative viability ([15]; first compound 0.02 µM): 0.111
- relative viability ([16]; first compound 0.000632 µM): 0.253
- relative viability ([16]; first compound 0.002 µM): 0.206
- relative viability ([16]; first compound 0.006325 µM): 0.198
- relative viability ([17]; first compound 0.0002 µM): 1.06
- relative viability ([17]; first compound 0.000632 µM): 0.814
- relative viability ([17]; first compound 0.002 µM): 0.737
- relative viability ([17]; first compound 0.006325 µM): 0.636
- relative viability ([17]; first compound 0.02 µM): 0.355
- relative viability ([18]; first compound 0.0002 µM): 0.486
- relative viability ([18]; first compound 0.000632 µM): 0.568
- relative viability ([18]; first compound 0.002 µM): 0.675
- relative viability ([18]; first compound 0.006325 µM): 0.441
- relative viability ([18]; first compound 0.02 µM): 0.369
- relative viability ([19]; first compound 0.0002 µM): 0.175
- relative viability ([19]; first compound 0.000632 µM): 0.142
- relative viability ([19]; first compound 0.002 µM): 0.103
- relative viability ([19]; first compound 0.006325 µM): 0.122
- relative viability ([19]; first compound 0.02 µM): 0.0856
- relative viability ([20]; first compound 0.0002 µM): 0.941
- relative viability ([20]; first compound 0.000632 µM): 0.44
- relative viability ([20]; first compound 0.002 µM): 0.393
- relative viability ([20]; first compound 0.006325 µM): 0.237
- relative viability ([20]; first compound 0.02 µM): 0.198
- relative viability ([21]; first compound 0.0002 µM): 0.247
- relative viability ([21]; first compound 0.000632 µM): 0.27
- relative viability ([21]; first compound 0.002 µM): 0.22
- relative viability ([21]; first compound 0.006325 µM): 0.157
- relative viability ([21]; first compound 0.02 µM): 0.134
